In patent publication US20260078108A1, “SOLID FORMS OF A ROCK INHIBITOR” (REDX PHARMA PLC, priority 2022, published 2026):

How the values were obtained:
LATS2 = molecular target: T1, LATS2 (Homo sapiens, UniProt Q9NRM7); test: Kinase panel 33P-ATP filter assay, LATS2; format: biochemical; conditions: HCl salt tested; ATP Conc. 30 μM (Km); read-out: Compound IC50 (nM) LATS2
T1 sequence (Q9NRM7 1-1088): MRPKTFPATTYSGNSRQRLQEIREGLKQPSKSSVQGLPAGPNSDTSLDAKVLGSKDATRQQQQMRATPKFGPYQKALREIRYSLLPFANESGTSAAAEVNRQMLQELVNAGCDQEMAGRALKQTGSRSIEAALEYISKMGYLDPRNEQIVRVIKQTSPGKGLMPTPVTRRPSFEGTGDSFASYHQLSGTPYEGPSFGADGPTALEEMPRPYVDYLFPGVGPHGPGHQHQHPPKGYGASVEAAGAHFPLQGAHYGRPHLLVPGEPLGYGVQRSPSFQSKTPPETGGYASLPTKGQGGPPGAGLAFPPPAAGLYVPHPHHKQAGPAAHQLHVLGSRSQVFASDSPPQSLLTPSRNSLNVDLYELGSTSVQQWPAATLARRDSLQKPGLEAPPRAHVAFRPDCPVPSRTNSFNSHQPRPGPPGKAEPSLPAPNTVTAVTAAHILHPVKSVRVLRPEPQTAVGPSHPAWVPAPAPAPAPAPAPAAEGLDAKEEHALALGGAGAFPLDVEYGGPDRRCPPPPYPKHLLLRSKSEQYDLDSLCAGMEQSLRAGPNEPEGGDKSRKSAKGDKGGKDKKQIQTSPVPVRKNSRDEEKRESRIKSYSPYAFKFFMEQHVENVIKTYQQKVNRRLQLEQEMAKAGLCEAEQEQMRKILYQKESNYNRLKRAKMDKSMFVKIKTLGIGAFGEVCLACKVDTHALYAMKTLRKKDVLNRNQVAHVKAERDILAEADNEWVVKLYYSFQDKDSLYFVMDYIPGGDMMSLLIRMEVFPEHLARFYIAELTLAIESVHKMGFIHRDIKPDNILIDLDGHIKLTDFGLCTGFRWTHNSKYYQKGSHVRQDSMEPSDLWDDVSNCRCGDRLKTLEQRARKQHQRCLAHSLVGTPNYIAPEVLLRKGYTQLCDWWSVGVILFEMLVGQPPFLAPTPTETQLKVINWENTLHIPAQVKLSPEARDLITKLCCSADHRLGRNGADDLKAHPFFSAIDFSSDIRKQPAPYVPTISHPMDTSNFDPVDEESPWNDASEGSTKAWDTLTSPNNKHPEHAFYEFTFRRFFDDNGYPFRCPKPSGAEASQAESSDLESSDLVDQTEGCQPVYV
Experimental: The HCl salts of S enantiomer and the R enantiomer of compound A were tested against a panel of kinases.
Compounds were received as powder and resuspended to 10 mM DMSO stock. Compounds were tested in 10-dose IC50 mode with a 3-fold serial dilution starting at 10 μM. Control compound, staurosporine, was tested in 10-dose IC50 mode with 4-fold serial dilution starting at 20 μM.
Reaction Conditions: Buffer Conditions: 20 mM HEPES ((4-(2-hydroxyethyl)-1-piperazineethanesulfonic acid; pH 7.5), 10 mM MgCl2, 1 mM EGTA (Ethyleneglycol-bis(p-aminoethyl)-N,N,N′,N′-tetraacetic Acid), 0.01% Brij35, 0.02 mg/ml BSA (Bovine serum albumin), 0.1 mM Na3VO4, 2 mM DTT (Dithiothreitol), 1% DMSO. Reaction Procedure: 1. Prepare indicated substrate in freshly prepared reaction buffer. 2. Deliver required cofactors to the substrate solution above. 3. Deliver indicated kinase into the substrate solution and mix gently. 4. Deliver compounds in DMSO into the kinase reaction mixture utilizing acoustic technology (Echo550). 5. Deliver ^33P-ATP (specific activity 0.01 μCi/μl final) into the reaction mixture to initiate the reaction. 6. Incubate kinase reaction for 120 minutes at room temperature. 7. […] Data Analysis: Kinase activity data were expressed as the percent remaining kinase activity in test samples compared to vehicle (dimethyl sulfoxide) reactions. […]

CB2 (h) = molecular target: T2, CB2 (h) (Homo sapiens, UniProt P34972); test: CEREP panel CB2 (h) antagonist effect, cAMP HTRF; format: cell-based; conditions: HCl salt tested; CHO cells, WIN 55212-2 (3 nM)
T2 construct: expressed in transfected cells; host or cells: CHO cells
From the text: (§1) The use of in vitro pharmacological screening against a diverse range of targets (receptors, ion channels, enzymes and transporters) is used to identify undesirable off-target activity that may cause adverse drug reactions in humans. Screening panels (e.g. SafetyScreen44™ Panel, Eurofins) comprise a selection of off-targets linked with known issues in humans that could hinder or halt the development of drug candidates or market withdrawal if discovered after a drug is approved. The HCl salts of the S enantiomer and the R enantiomer of compound A were tested against a panel of such targets.
(§2) The tests were carried out according to the methods described in the following tables and indicated literature references.

MAO-A = molecular target: T3, MAO-A (Rattus norvegicus, UniProt P21396); test: CEREP panel MAO-A (antagonist radioligand); format: binding; conditions: HCl salt tested
T3 sequence (P21396 1-526): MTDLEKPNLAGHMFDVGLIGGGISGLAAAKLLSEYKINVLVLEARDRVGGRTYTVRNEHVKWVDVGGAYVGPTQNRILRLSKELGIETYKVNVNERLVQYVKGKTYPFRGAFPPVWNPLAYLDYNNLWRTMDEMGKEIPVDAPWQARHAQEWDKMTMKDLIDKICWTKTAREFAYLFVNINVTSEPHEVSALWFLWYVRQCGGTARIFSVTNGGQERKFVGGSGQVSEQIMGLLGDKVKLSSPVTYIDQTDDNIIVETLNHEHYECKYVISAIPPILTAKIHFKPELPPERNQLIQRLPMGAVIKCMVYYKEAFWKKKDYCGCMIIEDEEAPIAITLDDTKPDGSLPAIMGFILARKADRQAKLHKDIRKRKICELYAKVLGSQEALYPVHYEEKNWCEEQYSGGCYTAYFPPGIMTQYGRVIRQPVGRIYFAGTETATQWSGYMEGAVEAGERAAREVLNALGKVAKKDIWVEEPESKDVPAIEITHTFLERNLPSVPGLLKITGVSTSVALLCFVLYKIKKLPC
From the text: as §1, §2

μ (MOP) (h) [1] = molecular target: T4, μ (MOP) (h) (Homo sapiens, UniProt P35372); test: CEREP panel mu (MOP) (h) agonist effect, cAMP HTRF; format: cell-based; conditions: HCl salt tested, CHO cells
T4 construct: expressed in transfected cells; host or cells: CHO cells
From the text: as §1, §2

μ (MOP) (h) [2] = molecular target: T4, μ (MOP) (h); test: CEREP panel mu (MOP) (h) antagonist effect, cAMP HTRF; format: cell-based; conditions: HCl salt tested; CHO cells, DAMGO (10 nM)
From the text: as §1, §2

Serotonin transporter = molecular target: T5, Serotonin transporter (Homo sapiens, UniProt P31645); test: CEREP panel serotonin transporter uptake (h), [3H]5HT incorporation; format: cell-based; conditions: HCl salt tested; [3H]5HT incorporation in cells
T5 construct: expressed in transfected cells
From the text: as §1, §2

ROCK2 = ROCK2 (Homo sapiens, UniProt O75116); test: Activity against kinase ROCK2; format: biochemical; conditions: comparison of enantiomers
Sequence of ROCK2 (O75116 whole entry, species assumed): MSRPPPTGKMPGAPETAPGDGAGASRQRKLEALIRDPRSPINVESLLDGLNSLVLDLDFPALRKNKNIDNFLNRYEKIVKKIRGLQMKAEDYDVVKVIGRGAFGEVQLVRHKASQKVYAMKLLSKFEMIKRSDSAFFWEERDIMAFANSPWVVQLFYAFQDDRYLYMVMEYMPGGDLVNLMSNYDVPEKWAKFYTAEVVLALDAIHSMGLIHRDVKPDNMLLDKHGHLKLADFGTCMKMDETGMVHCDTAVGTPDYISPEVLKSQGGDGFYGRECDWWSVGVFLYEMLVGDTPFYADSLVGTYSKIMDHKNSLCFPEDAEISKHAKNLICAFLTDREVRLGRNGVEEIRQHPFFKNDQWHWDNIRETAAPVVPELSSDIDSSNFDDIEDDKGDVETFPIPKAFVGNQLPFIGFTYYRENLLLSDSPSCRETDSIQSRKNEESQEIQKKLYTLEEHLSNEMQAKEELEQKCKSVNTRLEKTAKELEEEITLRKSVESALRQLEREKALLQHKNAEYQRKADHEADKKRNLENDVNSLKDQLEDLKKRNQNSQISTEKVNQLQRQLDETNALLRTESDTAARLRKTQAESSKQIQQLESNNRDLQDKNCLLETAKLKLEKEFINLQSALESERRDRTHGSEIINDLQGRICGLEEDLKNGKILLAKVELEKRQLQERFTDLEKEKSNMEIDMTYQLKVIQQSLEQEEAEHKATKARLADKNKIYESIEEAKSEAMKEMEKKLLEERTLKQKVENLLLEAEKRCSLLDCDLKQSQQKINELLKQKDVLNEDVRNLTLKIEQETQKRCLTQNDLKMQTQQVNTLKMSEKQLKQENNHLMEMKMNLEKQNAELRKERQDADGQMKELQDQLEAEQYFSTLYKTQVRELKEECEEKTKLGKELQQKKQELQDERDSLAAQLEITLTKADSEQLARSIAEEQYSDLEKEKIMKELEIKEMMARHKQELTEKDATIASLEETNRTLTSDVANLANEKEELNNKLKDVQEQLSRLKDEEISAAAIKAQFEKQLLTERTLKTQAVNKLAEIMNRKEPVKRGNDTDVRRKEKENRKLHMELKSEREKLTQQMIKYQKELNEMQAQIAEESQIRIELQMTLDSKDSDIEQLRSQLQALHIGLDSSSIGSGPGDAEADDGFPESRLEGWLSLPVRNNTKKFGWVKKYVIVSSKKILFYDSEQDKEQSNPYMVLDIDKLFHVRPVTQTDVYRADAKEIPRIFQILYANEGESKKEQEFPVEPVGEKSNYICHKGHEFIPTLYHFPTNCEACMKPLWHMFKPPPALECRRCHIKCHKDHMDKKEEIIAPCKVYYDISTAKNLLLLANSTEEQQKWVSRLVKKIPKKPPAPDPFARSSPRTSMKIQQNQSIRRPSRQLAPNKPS

T4 sequence (P35372 whole entry): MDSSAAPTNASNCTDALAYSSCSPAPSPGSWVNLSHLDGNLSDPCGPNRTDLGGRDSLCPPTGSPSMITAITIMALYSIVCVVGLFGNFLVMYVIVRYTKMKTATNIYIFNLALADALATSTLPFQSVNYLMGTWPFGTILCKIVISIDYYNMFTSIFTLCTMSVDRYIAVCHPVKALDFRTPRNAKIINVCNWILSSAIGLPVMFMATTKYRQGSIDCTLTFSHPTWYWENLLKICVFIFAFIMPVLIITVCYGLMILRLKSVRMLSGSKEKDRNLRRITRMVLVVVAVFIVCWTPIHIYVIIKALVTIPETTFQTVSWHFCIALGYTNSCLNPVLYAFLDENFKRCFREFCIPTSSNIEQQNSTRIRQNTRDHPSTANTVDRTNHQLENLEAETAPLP
T2 sequence (P34972 whole entry): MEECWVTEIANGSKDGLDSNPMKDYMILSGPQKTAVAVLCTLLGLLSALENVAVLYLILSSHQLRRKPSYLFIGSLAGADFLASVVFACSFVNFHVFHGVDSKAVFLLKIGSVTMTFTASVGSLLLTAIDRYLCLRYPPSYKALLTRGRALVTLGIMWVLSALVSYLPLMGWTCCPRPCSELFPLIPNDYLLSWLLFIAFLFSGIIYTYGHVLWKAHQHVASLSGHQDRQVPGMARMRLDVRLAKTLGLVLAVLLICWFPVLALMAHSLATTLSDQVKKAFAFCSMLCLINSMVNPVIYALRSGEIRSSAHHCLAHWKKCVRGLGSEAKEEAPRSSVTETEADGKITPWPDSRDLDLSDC
T5 sequence (P31645 whole entry): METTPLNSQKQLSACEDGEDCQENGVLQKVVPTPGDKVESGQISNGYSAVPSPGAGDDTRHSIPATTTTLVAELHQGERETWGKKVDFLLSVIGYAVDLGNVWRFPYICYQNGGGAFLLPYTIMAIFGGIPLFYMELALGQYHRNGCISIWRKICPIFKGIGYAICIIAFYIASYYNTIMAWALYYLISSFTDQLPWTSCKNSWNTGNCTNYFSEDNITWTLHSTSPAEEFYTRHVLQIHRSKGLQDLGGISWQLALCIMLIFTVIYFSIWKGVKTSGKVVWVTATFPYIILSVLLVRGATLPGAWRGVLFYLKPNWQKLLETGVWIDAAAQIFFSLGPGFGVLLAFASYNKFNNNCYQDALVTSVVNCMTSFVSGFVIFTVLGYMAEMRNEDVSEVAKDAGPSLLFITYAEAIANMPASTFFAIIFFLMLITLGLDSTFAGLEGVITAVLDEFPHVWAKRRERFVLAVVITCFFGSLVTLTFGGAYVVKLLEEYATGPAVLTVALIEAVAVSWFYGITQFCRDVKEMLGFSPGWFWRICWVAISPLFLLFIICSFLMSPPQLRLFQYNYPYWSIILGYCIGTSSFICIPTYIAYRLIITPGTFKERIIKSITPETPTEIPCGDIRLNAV

IC50 (LATS2)	IC50 (CB2 (h))	IC50 (MAO-A)	EC50 (μ (MOP) (h) [1])	mu (MOP) (h) (antagonist effect) (IC50) (μ (MOP) (h) [2])	IC50 (Serotonin transporter)	Difference between activities of S- and R-enantiomer against ROCK2 (ROCK2)	CB2 (h) (antagonist effect) (IC50) (CB2 (h))	Structure (SMILES)
42.7 nM	38 µM	4.3 µM	3 µM	Inactive	6 µM	no statistically meaningful difference		NCc1ccc(C(=O)Nc2ccncc2F)cc1-c1cccc(C(=O)Nc2ccc(SC[C@@H]3CCOC3=O)cc2)c1 [R-enantiomer]
33.3 nM		0.82 µM	84 µM	Inactive	11 µM	no statistically meaningful difference	Inactive	NCc1ccc(C(=O)Nc2ccncc2F)cc1-c1cccc(C(=O)Nc2ccc(SC[C@H]3CCOC3=O)cc2)c1 [S-enantiomer]
